Columns and labels:
SF-539 = test: NCI 60-cell line one-dose antiproliferative screen (SRB); type: cell-based; details: Homo sapiens, read-out: growth inhibition % (GI%)
Protocol: (§1) Anticancer activity screening of the newly synthesised compounds was measured in vitro utilising 60 different human tumour cell lines provided by US National Cancer Institute according to previously reported standard procedure[41–43] as follows: Cells are inoculated into 96-well microtiter plates in 100 ml. After cell inoculation, the microtiter plates are incubated at 37 °C, 5% CO2, 95% air, and 100% relative humidity for 24 h prior to addition of experimental compounds. After 24 h, two plates of each cell line are fixed in situ with TCA, to represent a measurement of the cell population for each cell line at the time of compound addition (Tz). Experimental compounds are solubilised in dimethyl sulfoxide at 400-fold the desired final maximum test concentration and stored frozen prior to use. At the time of compound addition, an aliquot of frozen concentrate is thawed and diluted to twice the desired final maximum test concentration with a complete medium containing […] gentamicin. Aliquots of […] of the compounds dilutions are added to the appropriate microtiter wells already containing 100 ml of medium, resulting in the required final compound concentration. Following compound addition, the plates are incubated for an additional 48 h at 37 °C, 5% CO2, 95% air, and 100% relative humidity. For adherent cells, the assay is terminated by the addition of cold trichloroacetic acid (TCA). Cells are fixed in situ by the gentle addition of 50 ml of cold 50% (w/v) TCA (final concentration, 10% TCA) and incubated for […] at 4 °C. The supernatant is discarded, and the plates are washed five times with tap water and air-dried. Sulforhodamine B (SRB) solution (100 ml) at 0.4% (w/v) in 1% acetic acid is added to each well, and plates are incubated for 10 min at room temperature. After staining, the unbound dye is removed by washing five times with 1% acetic acid and the plates are air-dried. The bound stain is subsequently solubilised with a 10 mM trizma base, and the absorbance is read on an automated plate reader at a wavelength of 515 nm. For suspension cells, the methodology is the same except that the assay is terminated by fixing settled cells at the bottom of the wells by gently adding 50 ml of 80% TCA (final concentration, 16% TCA). Using the absorbance measurements [time zero, (Tz), control growth, (C), and test growth in the presence of compound (Ti)], the percentage growth is calculated for each compound. The One-dose data are reported as a mean graph of the percent growth of treated cells. The reported number is growth relative to the no-compound control, and relative to the time zero number of cells. This allows the detection of both growth inhibition and lethality.
(§2) Fifteen newly synthesised compounds were tested for their in vitro antiproliferative activity by the National Cancer Institute (NCI), Maryland, USA[50], under the Developmental Therapeutic Program (DTP)[41]^,[43]^,[51]^,[52]. The tested compounds were evaluated at a concentration of 10 µM on a panel of 60 tumour cell lines representing leukaemia and non-small cell lung, colon, CNS, melanoma, ovarian, renal, prostate, and breast cancers. The antiproliferative activity was presented by the NCI as percent growth of the treated cells and is presented in Table 1 as growth inhibition percentage (GI%) achieved by the tested compounds.

SR = test: as above; type: cell-based; details: Homo sapiens, read-out: growth inhibition % (GI%)
Protocol: as §1, §2

IGROV1 = test: as above; type: cell-based; details: Homo sapiens, IGROV-1, read-out: growth inhibition % (GI%)
Protocol: as §1, §2

CAKI-1 = test: as above; type: cell-based; details: Homo sapiens, read-out: growth inhibition % (GI%)
Protocol: as §1, §2

EKVX = test: as above; type: cell-based; details: Homo sapiens, read-out: growth inhibition % (GI%)
Protocol: as §1, §2

MDA-MB-231/ATCC = test: as above; type: cell-based; details: Homo sapiens, read-out: growth inhibition % (GI%)
Protocol: as §1, §2

HCT-15 = test: as above; type: cell-based; details: Homo sapiens, read-out: growth inhibition % (GI%)
Protocol: as §1, §2

HL-60 (TB) = test: as above; type: cell-based; details: Homo sapiens, read-out: growth inhibition % (GI%)
Protocol: as §1, §2

MDA-MB-435 = test: as above; type: cell-based; details: Homo sapiens, read-out: growth inhibition % (GI%)
Protocol: as §1, §2

HS 578 T = test: as above; type: cell-based; details: Homo sapiens, read-out: growth inhibition % (GI%)
Protocol: as §1, §2

UO-31 = test: as above; type: cell-based; details: Homo sapiens, read-out: growth inhibition % (GI%)
Protocol: as §1, §2

OVCAR-5 = test: as above; type: cell-based; details: Homo sapiens, read-out: growth inhibition % (GI%)
Protocol: as §1, §2

SNB-19 = test: as above; type: cell-based; details: Homo sapiens, read-out: growth inhibition % (GI%)
Protocol: as §1, §2

SF-295 = test: as above; type: cell-based; details: Homo sapiens, read-out: growth inhibition % (GI%)
Protocol: as §1, §2

SK-MEL-5 = test: as above; type: cell-based; details: Homo sapiens, read-out: growth inhibition % (GI%)
Protocol: as §1, §2

SF-268 = test: as above; type: cell-based; details: Homo sapiens, read-out: growth inhibition % (GI%)
Protocol: as §1, §2

M14 = test: as above; type: cell-based; details: Homo sapiens, read-out: growth inhibition % (GI%)
Protocol: as §1, §2

OVCAR-4 = test: as above; type: cell-based; details: Homo sapiens, read-out: growth inhibition % (GI%)
Protocol: as §1, §2

SW-620 = test: as above; type: cell-based; details: Homo sapiens, read-out: growth inhibition % (GI%)
Protocol: as §1, §2

UACC-257 = test: as above; type: cell-based; details: Homo sapiens, read-out: growth inhibition % (GI%)
Protocol: as §1, §2

OVCAR-8 = test: as above; type: cell-based; details: Homo sapiens, read-out: growth inhibition % (GI%)
Protocol: as §1, §2

K-562 = test: as above; type: cell-based; details: Homo sapiens, K562, read-out: growth inhibition % (GI%)
Protocol: as §1, §2

T-47D = test: as above; type: cell-based; details: Homo sapiens, T47D, read-out: growth inhibition % (GI%)
Protocol: as §1, §2

SNB-75 = test: as above; type: cell-based; details: Homo sapiens, read-out: growth inhibition % (GI%)
Protocol: as §1, §2

A549/ATCC = test: as above; type: cell-based; details: Homo sapiens, read-out: growth inhibition % (GI%)
Protocol: as §1, §2

HOP-62 = test: as above; type: cell-based; details: Homo sapiens, read-out: growth inhibition % (GI%)
Protocol: as §1, §2

NCI-H226 = test: as above; type: cell-based; details: Homo sapiens, read-out: growth inhibition % (GI%)
Protocol: as §1, §2

UACC-62 = test: as above; type: cell-based; details: Homo sapiens, read-out: growth inhibition % (GI%)
Protocol: as §1, §2

A498 = test: as above; type: cell-based; details: Homo sapiens, read-out: growth inhibition % (GI%)
Protocol: as §1, §2

SN 12 C = test: as above; type: cell-based; details: Homo sapiens, SN12C, read-out: growth inhibition % (GI%)
Protocol: as §1, §2

MDA-MB-468 = test: as above; type: cell-based; details: Homo sapiens, read-out: growth inhibition % (GI%)
Protocol: as §1, §2

NCI-H23 = test: as above; type: cell-based; details: Homo sapiens, read-out: growth inhibition % (GI%)
Protocol: as §1, §2

ACHN = test: as above; type: cell-based; details: Homo sapiens, read-out: growth inhibition % (GI%)
Protocol: as §1, §2

MCF7 = test: as above; type: cell-based; details: Homo sapiens, read-out: growth inhibition % (GI%)
Protocol: as §1, §2

TK-10 = test: as above; type: cell-based; details: Homo sapiens, read-out: growth inhibition % (GI%)
Protocol: as §1, §2

NCI-H522 = test: as above; type: cell-based; details: Homo sapiens, read-out: growth inhibition % (GI%)
Protocol: as §1, §2

HCT-116 = test: as above; type: cell-based; details: Homo sapiens, read-out: growth inhibition % (GI%)
Protocol: as §1, §2

U251 = test: as above; type: cell-based; details: Homo sapiens, U-251, read-out: growth inhibition % (GI%)
Protocol: as §1, §2

786-0 = test: as above; type: cell-based; details: Homo sapiens, read-out: growth inhibition % (GI%)
Protocol: as §1, §2

LOX IMVI = test: as above; type: cell-based; details: Homo sapiens, read-out: growth inhibition % (GI%)
Protocol: as §1, §2

BT-5 = test: as above; type: cell-based; details: Homo sapiens, read-out: growth inhibition % (GI%)
Protocol: as §1, §2

[1] = test system: panel of 60 tumour cell lines; test: NCI 60-cell line one-dose screen, summary over the panel; type: cell-based, human; details: 10 µM
Protocol: Anticancer activity screening of the newly synthesised compounds was measured in vitro utilising 60 different human tumour cell lines provided by US National Cancer Institute according to previously reported standard procedure[41–43] as follows: Cells are inoculated into 96-well microtiter plates in 100 ml. After cell inoculation, the microtiter plates are incubated at 37 °C, 5% CO2, 95% air, and 100% relative humidity for 24 h prior to addition of experimental compounds. After 24 h, two plates of each cell line are fixed in situ with TCA, to represent a measurement of the cell population for each cell line at the time of compound addition (Tz). Experimental compounds are solubilised in dimethyl sulfoxide at 400-fold the desired final maximum test concentration and stored frozen prior to use. At the time of compound addition, an aliquot of frozen concentrate is thawed and diluted to twice the desired final maximum test concentration with a complete medium containing […] gentamicin. Aliquots of […] of the compounds dilutions are added to the appropriate microtiter wells already containing 100 ml of medium, resulting in the required final compound concentration. Following compound addition, the plates are incubated for an additional 48 h at 37 °C, 5% CO2, 95% air, and 100% relative humidity. […] The bound stain is subsequently solubilised with a 10 mM trizma base, and the absorbance is read on an automated plate reader at a wavelength of 515 nm. […] Using the absorbance measurements [time zero, (Tz), control growth, (C), and test growth in the presence of compound (Ti)], the percentage growth is calculated for each compound. […]
as §2, with “The antiproliferative activity was presented by the NCI as percent growth of the treated cells and is presented in Table 1 as growth inhibition percentage (GI%) achieved by the tested compounds.” left out

Cc1ccc(C(=O)c2ccc(CC(=O)NN=Cc3ccc4c(c3)OCO4)n2C)cc1 [Compound 5d, N′-(Benzo[d][1,3]dioxol-5-ylmethylene)-2–(1-methyl-5–(4-methylbenzoyl)-1H-pyrrol-2-yl)acetohydrazide] gave an inhibition at 10 µM (SF-539) of less than 10%, an inhibition at 10 µM (SR) of less than 10% and an inhibition at 10 µM (IGROV1) of less than 10%. For the same compound, the inhibition at 10 µM (CAKI-1) was less than 10%, the inhibition at 10 µM (EKVX) was less than 10% and the inhibition at 10 µM (MDA-MB-231/ATCC) was less than 10%. It also gave an inhibition at 10 µM (HCT-15) of less than 10%, an inhibition at 10 µM (HL-60 (TB)) of less than 10% and an inhibition at 10 µM (MDA-MB-435) of less than 10%. The inhibition at 10 µM (HS 578 T) was less than 10%, the inhibition at 10 µM (UO-31) was 22.2% and the inhibition at 10 µM (OVCAR-5) was less than 10%. For the same compound, the inhibition at 10 µM (SNB-19) was less than 10%, the inhibition at 10 µM (SF-295) was less than 10% and the inhibition at 10 µM (SK-MEL-5) was less than 10%. The inhibition at 10 µM (SF-268) was less than 10%, the inhibition at 10 µM (M14) was less than 10% and the inhibition at 10 µM (OVCAR-4) was less than 10%. For the same compound, the inhibition at 10 µM (SW-620) was less than 10%, the inhibition at 10 µM (UACC-257) was less than 10% and the inhibition at 10 µM (OVCAR-8) was less than 10%. The inhibition at 10 µM (K-562) was less than 10%, the inhibition at 10 µM (T-47D) was 15.6% and the inhibition at 10 µM (SNB-75) was less than 10%. The inhibition at 10 µM (A549/ATCC) was less than 10%, the inhibition at 10 µM (HOP-62) was less than 10% and the inhibition at 10 µM (NCI-H226) was less than 10%. The inhibition at 10 µM (UACC-62) was less than 10%, the inhibition at 10 µM (A498) was 13.1% and the inhibition at 10 µM (SN 12 C) was less than 10%. It also gave an inhibition at 10 µM (MDA-MB-468) of less than 10%, an inhibition at 10 µM (NCI-H23) of less than 10% and an inhibition at 10 µM (ACHN) of less than 10%. It also gave an inhibition at 10 µM (MCF7) of less than 10%, an inhibition at 10 µM (TK-10) of less than 10% and an inhibition at 10 µM (NCI-H522) of 12.4%. It also gave an inhibition at 10 µM (HCT-116) of less than 10%, an inhibition at 10 µM (U251) of less than 10% and an inhibition at 10 µM (786-0) of less than 10%. The inhibition at 10 µM (LOX IMVI) was less than 10%, the inhibition at 10 µM (BT-5) was less than 10% and the “antiproliferative activity over the panel (in words)” value [1] was “inactive against most investigated cell lines”.
